“And” between values parts separate entries of the source, which are not always exact repeats. Equal entries are not always repeated.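 Interpolation was linear, between the two tested concentrations surrounding the appropriate level; five concentrations were tested over 48 hours in 96-well plates. GI50: concentration for 50% inhibition of growth. Definition used: TGI = concentration required for complete inhibition of growth.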
Tests used:
Experiment in all cases: DTP human tumour cell line panel, 48 h
CAKI-1 renal = tested on: CAKI-1 renal
CCRF-CEM leukemia = tested on: CCRF-CEM leukemia
DMS 273 small cell lung = tested on: DMS 273 small cell lung
HOP-62 NSCLC = tested on: HOP-62 NSCLC
HS 578T breast = tested on: HS 578T breast
KM12 colon = tested on: KM12 colon
OVCAR-4 ovarian = tested on: OVCAR-4 ovarian
OVCAR-8 ovarian = tested on: OVCAR-8 ovarian
SNB-78 CNS = tested on: SNB-78 CNS
XF 498 CNS = tested on: XF 498 CNS

Row | Compound | TGI (CAKI-1 renal) | TGI (CCRF-CEM leukemia) | TGI (DMS 273 small cell lung) [µM] | TGI (HOP-62 NSCLC) | TGI (HS 578T breast) [µM] | TGI (KM12 colon) | TGI (OVCAR-4 ovarian) | TGI (OVCAR-8 ovarian) | TGI (SNB-78 CNS) [µM] | TGI (XF 498 CNS) [µM] | GI50 (CAKI-1 renal) [µM] | GI50 (CCRF-CEM leukemia) [µM] | GI50 (HOP-62 NSCLC) [µM] | GI50 (KM12 colon) [µM] | GI50 (OVCAR-4 ovarian) [µM] | GI50 (OVCAR-8 ovarian) [µM] | GI50 (DMS 273 small cell lung) [µM] | GI50 (HS 578T breast) [µM] | GI50 (SNB-78 CNS) [µM] | GI50 (XF 498 CNS) [µM]
1 | COc1cc([C@H]2c3[nH]c4ccccc4c3C[C@H]3COC(=O)N32)cc(OC)c1O | 46.8 µM | 12.4 µM | 44.2 | 34.2 µM | 44.7 | 20.7 µM | > 100 µM | 63.9 µM | > 100 | 43 |  |  |  |  |  |  |  |  |  | 
2 | Cc1cc([N+](=O)[O-])c(S(=O)(=O)c2ccccc2)c([N+](=O)[O-])c1 | 10.3 µM | > 28 µM | 32.1 | 40 µM |  | 32.1 µM | 24.5 µM | > 62.5 µM | 48.6 | 27.6 |  |  |  |  |  |  |  |  |  | 
3 | NC(=O)c1c[se]c(C2OC(COP(=O)(O)CP(=O)(O)OCC3OC(n4cnc5c(N)ncnc54)C(O)C3O)C(O)C2O)n1 (stereo not drawn) | > 100 µM | > 100 µM | > 100 | > 100 µM |  | > 100 µM | > 100 µM | > 100 µM | > 100 | > 100 |  |  |  |  |  |  |  |  |  | 
4 | Cc1ccc(/C=C2\CNC/C(=C\c3ccc(C)cc3)C2=O)cc1 | 4.49 µM and 7.54 µM | 7.82 µM and 8.71 µM | 2.49 | 9.75 µM and 7.33 µM | > 100 | 1.55 µM and 3.32 µM | 4.04 µM and 23.1 µM | 2.44 µM and 5.63 µM | > 100 | 5.16 | 1.63 | 2.74 | 3.26 | 0.399 | 1.89 | 0.587 |  |  |  | 
5 | COc1ccc(CC2=NCCc3cc(OC)c(OC)cc32)cc1Br | 59.3 µM | > 100 µM | 33.7 | > 100 µM |  | 84.4 µM | > 100 µM | > 100 µM | > 100 | 53.1 |  |  |  |  |  |  |  |  |  | 
6 | CC[P+]1(CC)CCCC1 | > 100 µM | > 100 µM | > 100 | > 100 µM |  | > 100 µM | > 100 µM | > 100 µM | > 100 | > 100 |  |  |  |  |  |  |  |  |  | 
7 | CC(C)(CO)N=Cc1ccccc1[O-].CC(C)(CO)N=Cc1ccccc1[O-].[Co+2] | > 100 µM | 68.2 µM | > 100 | > 100 µM | > 100 | > 100 µM | > 100 µM | > 100 µM | > 100 | > 100 | 53.7 | 5.86 | > 100 | > 97.8 | 71.9 | > 100 | > 85.9 | > 100 | > 100 | > 100
8 | COC(=O)C1(F)C(=O)NC(=O)NC1OC (stereo not drawn) | > 100 µM | > 100 µM | > 100 | > 100 µM |  | > 100 µM | > 100 µM | > 100 µM | > 100 | > 100 |  |  |  |  |  |  |  |  |  | 
9 | C/C(=N/NC(=O)CC(=O)N(C(=O)c1ccccc1Cl)c1ccc(C)cc1)c1cc2ccccc2oc1=O | > 100 µM | > 100 µM | > 100 | > 100 µM |  | > 100 µM | > 100 µM | > 100 µM | > 100 | > 100 |  |  |  |  |  |  |  |  |  | 
10 | Cc1nnc(N=Nc2c(O)[nH]c3ccccc23)n1N | > 100 µM | > 100 µM | > 100 | > 100 µM |  | > 100 µM | > 100 µM | > 100 µM | > 100 | > 100 |  |  |  |  |  |  |  |  |  | 
11 | CC1=C(C(=O)CC(=O)C(=O)NC2C3CC4CC(C3)CC2C4)Sc2ccccc2N1 (stereo not drawn) | > 100 µM | > 87.7 µM | > 100 | > 100 µM |  | > 100 µM | > 100 µM | > 100 µM | > 100 | > 100 |  |  |  |  |  |  |  |  |  | 
12 | CC[C@@]1(O)C(=O)OCc2c1cc1n(c2=O)Cc2cc3c(N)cccc3nc2-1 | 0.858 µM |  | 0.111 | 0.0489 µM | > 60.7 | 11.6 µM | 3.62 µM | 2.51 µM | > 100 | 1.05 | 0.00849 | 0.00158 | 0.00637 | 0.0151 |  | 0.0403 |  | 0.0865 |  | 

From PubChem BioAssay (NCI)
